From patent publication US8343983B2, “Substituted pyrazolo-pyrimidine compounds” (ArQule, Inc., priority 2009, dated 2013) come the findings set out here.

Like-named read-outs stand apart in the source and are kept apart here.

The subject of this assay is cancer cells. Put plainly: MTS assay: inhibition of cell growth (formazan absorbance at 492 nm after 72 hours with test compound). It is filed as cell-based. The following applies: inhibition class. In outline:
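DMEM with 1% FBS; cells seeded at 3000/well and grown 18 h at 37 °C, then exposed to compound for 72 h and to MTS/PMS for 4 h. IC50 is the concentration giving a 50% absorbance drop; grades are % inhibition bands.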
A general note: Tetrazolium assays rely on reduction of a dye to a coloured formazan, in cell work by metabolically active cells.

The mark [1] stands for this setting: Homo sapiens, DLD-1 cells, read-out: DLD-1, MTS 72 hours at 10 uM.
Setting [2] is: Homo sapiens, KATO III cells, read-out: KATO III, MTS 72 hours at 10 uM.
The mark [3] stands for this setting: Homo sapiens, MDA-MB-231 cells, read-out: MDA-MB-231, MTS 72 hours at 10 uM.
[4] abbreviates: Homo sapiens, NCI-H1299 cells, read-out: NCI-H1299, MTS 72 hours at 10 uM.
[5] abbreviates: Homo sapiens, PC-3 cells, read-out: PC-3, MTS 72 hours at 10 uM.
Where [6] appears, read: PACA-2 cells, read-out: PACA-2, MTS 72 hours at 10 uM.

Consider `O=C(NCc1ccccc1)C1CN(Cc2ccccc2)c2nc(NCc3ccco3)nc3[nH]nc1c23` (stereo not drawn) [Compound 225, N,6-dibenzyl-4-[(furan-2-ylmethyl)amino]-2,6,7,8-tetrahydro-1,2,3,5,6-pentaazaacenaphthylene-8-carboxamide], for which the inhibition at 10 µM reads like this: under setting [1], below 50%; under setting [2], below 50%; under setting [3], below 50%; under setting [4], below 50%; under setting [5], below 50%; under setting [6], below 50%.
`CN1CCC(Nc2nc3c4c(n[nH]c4n2)CCN3c2ccccc2)CC1` [Compound 219, N-(1-methylpiperidin-4-yl)-6-phenyl-2,6,7,8-tetrahydro-1,2,3,5,6-pentaazaacenaphthylen-4-amine]: the inhibition at 10 µM reads like this: under setting [1], above 79%; under setting [2], above 79%; under setting [3], above 79%; under setting [4], 50 to 79%; under setting [5], above 79%; under setting [6], above 79%.
On to `COCC(C)Nc1nc2c3c(n[nH]c3n1)CCN2Cc1ccccc1` (stereo not drawn) [Compound 78, 6-benzyl-N-(2-methoxy-1-methylethyl)-2,6,7,8-tetrahydro-1,2,3,5,6-pentaazaacenaphthylen-4-amine], for which the inhibition at 10 µM is, setting by setting: under setting [1], below 50%; under setting [2], below 50%; under setting [3], above 79%; under setting [4], below 50%; under setting [5], above 79%; under setting [6], below 50%.
Consider `CC(C)CNC(=O)C1CN(Cc2ccccc2)c2nc(NCc3ccccc3)nc3[nH]nc1c23` (stereo not drawn) [Compound 236, 6-benzyl-4-(benzylamino)-N-(2-methylpropyl)-2,6,7,8-tetrahydro-1,2,3,5,6-pentaazaacenaphthylene-8-carboxamide], for which the inhibition at 10 µM runs as follows: under setting [1], below 50%; under setting [2], below 50%; under setting [3], below 50%; under setting [4], below 50%; under setting [5], below 50%; under setting [6], below 50%.
Take `COc1ccc(CN2CCc3n[nH]c4nc(NCc5cccc(F)c5)nc2c34)cc1` [Compound 113, N-(3-fluorobenzyl)-6-(4-methoxybenzyl)-2,6,7,8-tetrahydro-1,2,3,5,6-pentaazaacenaphthylen-4-amine]: the inhibition at 10 µM was above 79% under setting [1]; below 50% under setting [2]; 50 to 79% under setting [3]; below 50% under setting [4]; above 79% under setting [5]; above 79% under setting [6].
`CN(C)CCCNc1nc2c3c(n[nH]c3n1)CCN2Cc1ccccc1` [Compound 91, N′-(6-benzyl-2,6,7,8-tetrahydro-1,2,3,5,6-pentaazaacenaphthylen-4-yl)-N,N-dimethylpropane-1,3-diamine]: the inhibition at 10 µM under setting [1] is 50 to 79%; the inhibition at 10 µM under setting [2] was above 79%; the inhibition at 10 µM under setting [3] was above 79%; the inhibition at 10 µM under setting [4] was below 50%; the inhibition at 10 µM under setting [5] is above 79%; the inhibition at 10 µM under setting [6] is below 50%.
With `O=C(NCc1ccccc1)C1CN(Cc2ccccc2)c2nc(N3CCCCC3)nc3[nH]nc1c23` (stereo not drawn) [Compound 227, N,6-dibenzyl-4-piperidin-1-yl-2,6,7,8-tetrahydro-1,2,3,5,6-pentaazaacenaphthylene-8-carboxamide], the inhibition at 10 µM under setting [1] is above 79%; the inhibition at 10 µM under setting [2] fell in the range of 50 to 79%; the inhibition at 10 µM under setting [3] was above 79%; the inhibition at 10 µM under setting [4] was above 79%; the inhibition at 10 µM under setting [5] is above 79%; the inhibition at 10 µM under setting [6] was below 50%.
On to `c1ccc(CN2CCc3n[nH]c4nc(N5CCN(c6ccccc6)CC5)nc2c34)cc1` [Compound 44, 6-benzyl-4-(4-phenylpiperazin-1-yl)-2,6,7,8-tetrahydro-1,2,3,5,6-pentaazaacenaphthylene], for which the inhibition at 10 µM is, setting by setting: under setting [1], below 50%; under setting [2], below 50%; under setting [3], below 50%; under setting [4], below 50%; under setting [5], below 50%; under setting [6], below 50%.
With `FC(F)(F)c1cccc(N2CCN(c3nc4c5c(n[nH]c5n3)CCN4Cc3ccccc3)CC2)c1` [Compound 38, 6-benzyl-4-{4-[3-(trifluoromethyl)phenyl]piperazin-1-yl}-2,6,7,8-tetrahydro-1,2,3,5,6-pentaazaacenaphthylene], the inhibition at 10 µM is, setting by setting: under setting [1], below 50%; under setting [2], below 50%; under setting [3], below 50%; under setting [4], below 50%; under setting [5], below 50%; under setting [6], below 50%.
In the case of `c1ccc(CN2CCc3n[nH]c4nc(NCCc5ccccn5)nc2c34)cc1` [Compound 65, 6-benzyl-N-(2-pyridin-2-ylethyl)-2,6,7,8-tetrahydro-1,2,3,5,6-pentaazaacenaphthylen-4-amine], the inhibition at 10 µM was below 50% under setting [1]; below 50% under setting [2]; below 50% under setting [3]; below 50% under setting [4]; below 50% under setting [5]; below 50% under setting [6].
Turning to `COc1ccc(CN2CCc3n[nH]c4nc(NC5CCCCC5)nc2c34)cc1` [Compound 107, N-cyclohexyl-6-(4-methoxybenzyl)-2,6,7,8-tetrahydro-1,2,3,5,6-pentaazaacenaphthylen-4-amine], the inhibition at 10 µM reads like this: under setting [1], below 50%; under setting [2], below 50%; under setting [3], below 50%; under setting [4], below 50%; under setting [5], below 50%; under setting [6], below 50%.
As for `c1cncc(CNc2nc3c4c(n[nH]c4n2)CCN3)c1` [Compound 121, N-(pyridin-3-ylmethyl)-2,6,7,8-tetrahydro-1,2,3,5,6-pentaazaacenaphthylen-4-amine], the inhibition at 10 µM is, setting by setting: under setting [1], below 50%; under setting [2], below 50%; under setting [3], below 50%; under setting [4], below 50%; under setting [5], below 50%; under setting [6], below 50%.
With `c1ccc(CCNc2nc3c4c(n[nH]c4n2)CCN3c2ccccc2)cc1` [Compound 220, 6-phenyl-N-(2-phenylethyl)-2,6,7,8-tetrahydro-1,2,3,5,6-pentaazaacenaphthylen-4-amine], the inhibition at 10 µM is above 79% under setting [1]; above 79% under setting [2]; 50 to 79% under setting [3]; 50 to 79% under setting [4]; 50 to 79% under setting [5]; above 79% under setting [6].
Take `c1ccc(N2CCc3n[nH]c4nc(NCc5cccnc5)nc2c34)cc1` [Compound 214, 6-phenyl-N-(pyridin-3-ylmethyl)-2,6,7,8-tetrahydro-1,2,3,5,6-pentaazaacenaphthylen-4-amine]: the inhibition at 10 µM reads like this: under setting [1], 50 to 79%; under setting [2], 50 to 79%; under setting [3], below 50%; under setting [4], 50 to 79%; under setting [5], below 50%; under setting [6], 50 to 79%.
In the case of `CN1CCCC1CCNc1nc2c3c(n[nH]c3n1)CCN2Cc1ccccc1` (stereo not drawn) [Compound 41, 6-benzyl-N-[2-(1-methylpyrrolidin-2-yl)ethyl]-2,6,7,8-tetrahydro-1,2,3,5,6-pentaazaacenaphthylen-4-amine], the inhibition at 10 µM under setting [1] was below 50%; the inhibition at 10 µM under setting [2] was below 50%; the inhibition at 10 µM under setting [3] is 50 to 79%; the inhibition at 10 µM under setting [4] is below 50%; the inhibition at 10 µM under setting [5] is below 50%; the inhibition at 10 µM under setting [6] is below 50%.
With `c1ccc(N2CCc3n[nH]c4nc(NC5CCCCC5)nc2c34)cc1` [Compound 211, N-cyclohexyl-6-phenyl-2,6,7,8-tetrahydro-1,2,3,5,6-pentaazaacenaphthylen-4-amine], the inhibition at 10 µM is, setting by setting: under setting [1], below 50%; under setting [2], below 50%; under setting [3], below 50%; under setting [4], below 50%; under setting [5], below 50%; under setting [6], below 50%.
On to `O=C1CCCN1CCCNc1nc2c3c(n[nH]c3n1)CCN2Cc1ccccc1` [Compound 51, 1-{3-[(6-benzyl-2,6,7,8-tetrahydro-1,2,3,5,6-pentaazaacenaphthylen-4-yl)amino]propyl}pyrrolidin-2-one], for which the inhibition at 10 µM runs as follows: under setting [1], below 50%; under setting [2], below 50%; under setting [3], below 50%; under setting [4], below 50%; under setting [5], below 50%; under setting [6], below 50%.
In the case of `Clc1ccccc1CCNc1nc2c3c(n[nH]c3n1)CCN2Cc1ccccc1` [Compound 35, 6-benzyl-N-[2-(2-chlorophenyl)ethyl]-2,6,7,8-tetrahydro-1,2,3,5,6-pentaazaacenaphthylen-4-amine], the inhibition at 10 µM was below 50% under setting [1]; below 50% under setting [2]; 50 to 79% under setting [3]; below 50% under setting [4]; below 50% under setting [5]; below 50% under setting [6].
Regarding `COc1ccc(CN2CCc3n[nH]c4nc(NCCN5CCOCC5)nc2c34)cc1` [Compound 105, 6-(4-methoxybenzyl)-N-(2-morpholin-4-ylethyl)-2,6,7,8-tetrahydro-1,2,3,5,6-pentaazaacenaphthylen-4-amine], the inhibition at 10 µM by setting is: under setting [1], above 79%; under setting [2], above 79%; under setting [3], above 79%; under setting [4], above 79%; under setting [5], above 79%; under setting [6], above 79%.
